The source of these data is patent US5013722A, “Cholecystokinin analogs for controlling appetite” (Hoffmann-LaRoche Inc., priority 1989, dated 1991).

For one series, the system named is rat and monkey, satiety. To be noted: cited from earlier work.
Series [1] deals with T1, receptors in rat pancreas (3H-CCK-8-(SO3 H) binding) (Rattus norvegicus, UniProt P30551).
T1 construct: receptors in homogenized preparations of rat pancreatic cells and bovine striata; from tissue; host or cells: rat pancreas homogenate (48,000 x g pellet)
T1 sequence (P30551 1-444): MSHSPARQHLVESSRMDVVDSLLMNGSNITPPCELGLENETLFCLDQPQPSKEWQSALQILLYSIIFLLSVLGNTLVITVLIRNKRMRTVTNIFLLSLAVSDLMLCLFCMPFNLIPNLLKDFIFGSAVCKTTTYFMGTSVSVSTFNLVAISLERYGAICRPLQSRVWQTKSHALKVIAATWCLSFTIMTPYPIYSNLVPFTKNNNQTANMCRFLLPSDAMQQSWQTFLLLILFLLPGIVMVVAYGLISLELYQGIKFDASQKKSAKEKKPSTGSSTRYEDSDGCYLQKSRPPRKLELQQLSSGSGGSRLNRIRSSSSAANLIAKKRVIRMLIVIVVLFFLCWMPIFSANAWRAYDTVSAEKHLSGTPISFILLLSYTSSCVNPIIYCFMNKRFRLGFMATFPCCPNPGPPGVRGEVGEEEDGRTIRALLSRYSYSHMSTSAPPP
Description: In vitro receptor binding assay, rat pancreas homogenate, 3H-CCK-8-(SO3H) radioligand. On the procedure:
This strategy was utilized to minimize central nervous system side effects by identifying peptides with peripheral receptor selectivity. […] The tissue was homogenized 2 x for approx. 15 sec. at 0° C. using a Polytron homogenizer at a setting of 6. The tissue was isolated by centrifugation at 48,000 x g for 10 min. at 0° C. […] Samples were incubated for 30 min. at 25° C. and the incubation terminated by pouring the mixture onto a pre-wet Whatman GF/B filter on a Sandbeck Vacuum Filtration Manifold. The incubation tubes were washed with 2×3 ml of ice-cold HEPES Buffer #2 and the wash filtered through the GF/B filter. The filter was air dried for 10 min. and then placed in a scintillation vial with 12 ml of Beckman HP/b Ready-Solv scintillation cocktail. The vials were shaken for 2 hours and then counted using a Beckman Model 7800 liquid scintillation spectrometer.

The target in series [2] is T2, receptors in bovine striatum (3H-CCK-8-(SO3 H) binding, central receptor) (Bos taurus, UniProt P79266).
T2 construct: receptors in homogenized preparations of rat pancreatic cells and bovine striata; from tissue; host or cells: bovine striatum homogenate (48,000 x g pellet)
T2 sequence (P79266 1-454): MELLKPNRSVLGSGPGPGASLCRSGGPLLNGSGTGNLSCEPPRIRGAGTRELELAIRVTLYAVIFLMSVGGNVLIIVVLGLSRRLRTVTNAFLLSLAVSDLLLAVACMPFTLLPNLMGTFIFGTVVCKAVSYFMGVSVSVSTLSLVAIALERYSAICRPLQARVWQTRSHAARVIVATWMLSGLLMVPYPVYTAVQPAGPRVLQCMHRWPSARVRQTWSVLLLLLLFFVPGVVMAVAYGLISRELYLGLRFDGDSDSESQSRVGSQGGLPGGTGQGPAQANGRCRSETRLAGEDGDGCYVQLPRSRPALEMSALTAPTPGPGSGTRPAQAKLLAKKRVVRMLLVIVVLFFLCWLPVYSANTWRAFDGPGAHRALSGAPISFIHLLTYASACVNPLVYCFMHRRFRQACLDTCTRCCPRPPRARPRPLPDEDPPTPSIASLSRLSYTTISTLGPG
Description: In vitro receptor binding assay, bovine striatum homogenate, 3H-CCK-8-(SO3H) radioligand. Conditions: 0.15 nM radioligand, 30 min, 25° C.; read-out: Bovine Striatum IC50 (inhibition of specific 3H-CCK-8-(SO3H) binding).
Description: Frozen bovine striatum (approx. 5 g) and fresh rat pancreas (approx. 5 g) cleaned of fat and extraneous tissue were homogenized in HEPES buffer #1 (10 mM HEPES+130 mM NaCl+5 mM MgCl2. pH 7.4) using 35 parts buffer per 1 part tissue on a wet weight/volume basis (approx. 175 ml). The tissue was homogenized 2 x for approx. 15 sec. at 0° C. using a Polytron homogenizer at a setting of 6. The tissue was isolated by centrifugation at 48,000 x g for 10 min. at 0° C. The resulting tissue pellet was resuspended in HEPES buffer #2 (10 mM HEPES+130 mM NaCl+5 mM MgCl2 +1 mg/L phenylmethanesulfonyl fluoride (PMSF)+200 mg/L Bacitracin): 1 part striatal tissue (original wet weight) per 80 parts buffer and 1 part pancreas tissue (original wet weight) per 70 parts buffer.
Incubation was initiated by combining various concentrations of native CCK-8 or peptides of formula I, II and III with ^3 H-CCK-8-(SO3 H) (final conc.=0.15 nM) and tissue homogenate (striatum 0.26 mg protein in 2 ml final volume; pancreas 0.165 mg protein in 1 ml final volume). Samples were incubated for 30 min. at 25° C. and the incubation terminated by pouring the mixture onto a pre-wet Whatman GF/B filter on a Sandbeck Vacuum Filtration Manifold. The incubation tubes were washed with 2×3 ml of ice-cold HEPES Buffer #2 and the wash filtered through the GF/B filter. The filter was air dried for 10 min. and then placed in a scintillation vial with 12 ml of Beckman HP/b Ready-Solv scintillation cocktail. The vials were shaken for 2 hours and then counted using a Beckman Model 7800 liquid scintillation spectrometer. Non-specific binding was determined in the presence of 1 micromole native CCK-8 and subtracted from all samples to determine specific binding. The concentration of ^3 peptide necessary to inhibit 50% of total specific H-CCK-8-(SO3 H) binding (IC50 value) was determined by log-probit analysis.

Series [3] concerns the target T3, Rat kidney metalloendopeptidase (Rattus norvegicus, UniProt P07861).
T3 construct: from tissue; host or cells: rat kidney
T3 sequence (P07861 1-750): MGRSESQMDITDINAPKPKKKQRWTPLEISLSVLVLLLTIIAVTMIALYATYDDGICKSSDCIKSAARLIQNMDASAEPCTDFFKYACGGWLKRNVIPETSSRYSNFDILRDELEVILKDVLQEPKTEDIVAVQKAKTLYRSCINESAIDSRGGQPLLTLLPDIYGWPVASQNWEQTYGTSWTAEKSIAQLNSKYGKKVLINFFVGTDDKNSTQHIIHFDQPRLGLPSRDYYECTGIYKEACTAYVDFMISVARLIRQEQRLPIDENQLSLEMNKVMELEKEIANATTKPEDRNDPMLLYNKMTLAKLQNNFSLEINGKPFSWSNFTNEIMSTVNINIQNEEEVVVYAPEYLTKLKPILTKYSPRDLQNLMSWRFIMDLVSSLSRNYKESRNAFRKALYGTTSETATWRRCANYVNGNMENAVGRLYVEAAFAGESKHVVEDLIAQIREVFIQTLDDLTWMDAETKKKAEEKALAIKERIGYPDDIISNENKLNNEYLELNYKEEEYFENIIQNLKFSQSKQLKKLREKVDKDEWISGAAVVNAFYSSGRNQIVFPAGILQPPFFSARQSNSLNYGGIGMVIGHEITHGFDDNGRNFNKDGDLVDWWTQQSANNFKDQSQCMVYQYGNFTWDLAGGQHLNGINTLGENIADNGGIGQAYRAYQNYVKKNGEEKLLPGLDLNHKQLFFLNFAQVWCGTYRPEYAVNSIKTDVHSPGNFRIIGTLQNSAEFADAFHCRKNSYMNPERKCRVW
Kind of series: Degradation by rat kidney metalloendopeptidase (HPLC). To be noted: for % Degradation by Height: 37° C., pH 7.6. The class given is in vitro ADME. The method, then: Rat kidney metalloendopeptidase (0.01 μg) and 5 nmol of peptide were incubated in 2 μmol tris-HCl buffer (pH 7.6) and at 37° C. for varying periods of time. The degradation of the peptide was monitored by analytical HPLC on a 5 micron Adsorbosphere-ODS column with a 0-50% CH3 CN gradient in 0.1N potassium phosphate, pH 3.0, with UV detection at 210 nm. Rates are based on presumed production of Asp-Tyr(SO3 H)-Met-Gly for CCK-8 and the presumed production of Ac-Tyr(SO3 H)-Met-Gly for Example 2 and 3.

Series [4] has as its system Male Sprague-Dawley (CD) rats, food intake. Kind of series: Two-meal feeding assay, intraperitoneal administration. The class given is in vivo, rat. Conditions: 32 microgm/Kg i.p., mean ± SEM; for Food Intake 1st Meal: 15 min before first meal. The method, then:
(§1) Male Sprague-Dawley (CD) rats weighing 180-200 grams (Charles River Breeding Laboratories) were acclimated to a 12 h light/dark cycle (6 a.m. to 6 p.m.) in a room kept at 22° C. They were subsequently fasted for two days, weighed, placed in individual cages, and a four-day period of meal training was begun. During this time the rats were given ground laboratory chow (Purina Lab Chow) in jars for one hour from 9:00 a.m. until 10:00 a.m., the jars were removed from 10:00 a.m. to 12:00 p.m., and placed back in the cages from 12:00 until 1:00 p.m. Under this `1-2-1` meal feeding regime most rats learn to eat approximately as much Per day during the two hours they have access to food as rats which have food ad libitum over the entire 24-hour day. On the fourth day, the rats were weighed again, and any which lost more than five grams body weight were excluded from the test. The animals were then distributed into experimental (n=5 to 6) and control groups (n=6-12). but not matched for body weight.
Peptides of the invention were suspended either in saline. if soluble, or in 1% gum arabic, if insoluble, at concentrations of 0 to 320 μg/ml/kg body weight and were administered intraperitonerally 15 min before the first meal on day 5 of meal feeding. The rats were then given their meals as they had been during the previous four days, and the food cups were weighed both before and after each meal to determine food consumption. Food intake was expressed as a mean and standard error of the mean in grams consumed or as a percent of control values for the various groups. The treated groups were compared to the control groups by t-test analysis. […]

For series [5], the system named is lean and obese men, food intake. To be noted: cited from earlier work.
The next series deals with Male rats, food intake. Kind of series: Two-meal feeding assay, intranasal administration. The class given is in vivo, rat. On the procedure: as §1
Male rats were meal trained as described in Example 9. The peptide of Example 2 was dissolved in saline and was administered to the rats intranasally. CCK-8, dissolved in saline was used as a control.

[6] abbreviates: 1000 μg/kg intranasal, saline = 100.

pIC50: −log10 of the molar value. Where a SMILES comes first, the peptide text is derived from it. Where no end group is shown, it is not given here. [ ]: non-standard residue; d: D form. The star is where a group is joined. Thr(SO3H) = C[C@@H](OS(=O)(=O)O)[C@H](N)C(=O)O; sY = N[C@@H](Cc1ccc(OS(=O)(=O)O)cc1)C(=O)O; NMeF = CN[C@@H](Cc1ccccc1)C(=O)O; Nle = CCCC[C@H](N)C(=O)O; For = O=C*

In the case of “Cholecystokinin (KAPSGRVSMIKNLQSLDPSHRISDRDYMGWMDF; ends and bridges not checked; UniProt P01356 70-102, looked up) [CCK, polypeptide hormone first isolated as a 33-amino acid peptide from the porcine gastrointestinal tract]”, the “Satiety after peripheral administration” value with rat and monkey, satiety was “produce satiety in the rat and the monkey”.

For orientation: pIC50 means −log10 of the IC50, conventionally taken in molar units. In the case of `CCCC[C@H](NC(=O)[C@H](Cc1ccc(OS(=O)(=O)O)cc1)NC(C)=O)C(=O)N[C@H](C)C(=O)N[C@@H](Cc1cn(C=O)c2ccccc12)C(=O)N[C@@H](CCSC)C(=O)N[C@H](C(=O)N(C)[C@@H](Cc1ccccc1)C(N)=O)[C@@H](C)OS(=O)(=O)O` [Example 3, Ac-Tyr-(SO3 H)-Nle-(D)Ala-Trp(For)-Met-Thr(SO3 H)-N-methyl-Phe-NH2] (Ac-[sY][Nle][dA]W(For)M[Thr(SO3H)][NMeF]-NH2), the pIC50 is 7.00 in series [1] (0.15 nM radioligand, 30 min, 25° C., read-out: Rat Pancreas IC50 (inhibition of specific 3H-CCK-8-(SO3H) binding)) and 7.00 in series [2]. For the same molecule, the “% Degradation by Height” value in series [3] (incubation 0 min), in series [3] (incubation 60 min), in series [3] (incubation 120 min) and in series [3] (incubation 240 min) was 0% in each case. The “No. of Peaks (degradation products)” value in series [3] (incubation 240 min) worked out at 0. Further, in series [4], the “Food Intake 1st Meal” value is on record as 34 ± 6 % of Control. The “Food Intake 2nd Meal” value in series [4] is listed as 164 ± 16 % of Control.

`CSCC[C@H](NC(=O)[C@H](Cc1ccc(OS(=O)(=O)O)cc1)NC(=O)[C@@H](N)CC(=O)O)C(=O)NCC(=O)N[C@@H](Cc1c[nH]c2ccccc12)C(=O)N[C@@H](CCSC)C(=O)N[C@@H](CC(=O)O)C(=O)N[C@@H](Cc1ccccc1)C(N)=O` [CCK-8, Asp--Tyr(SO3 H)--Met--Gly--Trp--Met--Asp--Phe--NH2, reference compound]: the “Binding selectivity, receptor sites in pancreas versus brain” value in series [1] (rat pancreas vs bovine striatum) is “binds to receptor sites in the pancreas and brain”. For the same molecule, in series [5], the “Food intake after infusion” value was “decrease food intake in lean and obese men”. For the same molecule, the “% Degradation by Height” value in series [3] (incubation 0 min) came to 0%. Also, the “% Degradation by Height” value in series [3] (incubation 15 min) was 6.2%. For the same molecule, the “% Degradation by Height” value in series [3] (incubation 30 min) is given as 33.2%. In addition, in series [3] (incubation 60 min), the “No. of Peaks (degradation products)” value is listed as 4 and the “% Degradation by Height” value was 69.7%. Moreover, the “Food Intake (activity in words)” value in the series with Male rats, food intake (400 μg/kg intranasal) is recorded as “Inactive”. In addition, in the series with Male rats, food intake (1000 μg/kg intranasal), the “Food Intake 1st meal Grams consumed” value came out at 4.9 ± 0.7 Grams and the “Food Intake 2nd meal Grams consumed” value is 6.3 ± 05 Grams. In the series on Male rats, food intake (setting [6]), the “Food Intake 1st meal (%)” value was 66% and the “Food Intake 2nd meal (%)” value came out at 112%. Besides, in series [4], the “Food Intake 1st Meal” value is recorded as 27 ± 17 % of Control and the “Food Intake 2nd Meal” value is listed as 149 ± 6 % of Control.
